Values of other authors in US20140213605A1, “METHODS FOR TREATING EYE DISORDERS USING OPIOID RECEPTOR ANTAGONISTS” (priority 2013, published 2014).

Key:
[1] = in vivo
[2] = tested on: rat cornea

O=C1CC[C@@]2(O)[C@H]3Cc4ccc(O)c5c4[C@@]2(CCN3CC2CC2)[C@H]1O5 [Naltrexone]
Excreted unchanged [1]: Less than 1%
Effect on incidence of re-epithelialization of the rat cornea ([2]; systemically administered): markedly influenced the incidence of re-epithelialization
Effect on re-epithelialization of the rat cornea ([2]; topical application in sterile water): not effective

Oc1ccc2c3c1O[C@H]1[C@H](O)CC[C@@]4(O)[C@@H](C2)N(CC2CC2)CC[C@]314 [6-β-naltrexol]
Bound to plasma protein [1]: Approximately 20%
